According to patent US20080206287A1, “Use of cyclosporin A to sensitize resistant cancer cells to death receptor ligands” (priority 2006, published 2008):
Entries after “also recorded” stand apart in the source; their conditions may differ.

Columns and labels:
Assay type in all cases: cell-based
[1] = tested on: OVCAR-3 and T47D tumor lines; test: Extrinsic versus intrinsic pathway stimuli in further tumor lines
PPC-1 cells = test: Apoptosis of PPC-1 cells transfected with CrmA or Bcl-XL; conditions: for protection by Bcl-XL against apoptosis induced by CH-11 plus compound: PPC-1 cells transfected with Bcl-XL; for protection by CrmA against apoptosis induced by CH-11 plus compound: PPC-1 cells transfected with CrmA
Experimental: Cell transfections. PPC-1 cells (2×10^5) were seeded in 35 mm diameter plates in RPMI with 10% FCS. The next day the cells were co-transfected using Lipofectamine Plus (Invitrogen, Carlsbad, Calif.) with 0.5 μg GFP-encoding plasmid pEGFP (Invitrogen) in combination with […] of plasmids encoding Bcl-XL, the viral caspase-8 inhibitor Crm A, or empty vector. At 2 days post-transfection, cells were incubated with various concentrations of CH-11 antibody and the test compounds for 24 hours, then the percentage apoptosis was scored by UV-microscopic analysis of the GFP-positive cells, counting a minimum of 200 cells. Cells that had rounded up and were floating in the medium were counted as non-viable, while cells that remained adherent to the plate with normal morphological features were counted as viable.
To further address the specificity of the compounds for the extrinsic pathway, the effects of selective apoptosis inhibitory genes were examined. For these experiments, PPC-1 cells were transfected with plasmids encoding CrmA, a viral protein that blocks the extrinsic pathway by inhibiting caspase-8 (Zhou et al., J. Biol. Chem. 272:7797-7800, 1997) or encoding Bcl-xL, a mitochondria-targeting protein that blocks the intrinsic pathway by inhibiting release of cytochrome c (Boise et al., Cell 74:597-608, 1993; Kharbanda et al., Proc. Natl. Acad. Sci. USA 94:6939-6942, 1997). After transfection, cells were treated with CH-11 antibody and compounds 6094911, 5809354, or […] scoring the percentage of apoptotic cells among the successfully transfected cells as determined by co-transfection of a GFP-marker plasmid.

FLIP mRNA = FLIP mRNA quantitative RT-PCR; conditions: responding and non-responding cell lines
Experimental: Quantitative RT-PCR. The cDNAs encoding the long isoform of FLIPL and GAPDH were amplified using the following primer pairs: 5′-[…]-3′ (forward primer for FLIP; SEQ ID NO:1), 5′-[…]-3′ (reverse primer for FLIP; SEQ ID NO:2), 5′-GAAGGTGAAGGTCGGAGTC-3′ (forward primer for GAPDH; SEQ ID NO:3), and 5′-[…]-3′ (reverse primer for GAPDH; SEQ ID NO:4). Equal amounts of cDNA for each sample were added to a prepared master mix (SYBR Green PCR Master mix, Applied Biosystems, Foster City, Calif.). Real-time quantitative PCR reactions were performed on an ABI Prism 7700 sequence detection system (Applied Biosystems, Foster City, Calif., USA). The relative abundance of a transcript was represented by the threshold cycle of amplification (CT), which is inversely correlated to the amount of target RNA/first strand cDNA being amplified. To normalize for equal amounts of the latter, the transcript levels of the putative housekeeping gene GAPDH were assayed. The comparative CT method was calculated as per manufacturer's instructions. To normalize the CT of FLIP for each sample, the following ratio was calculated: CT(FLIP)/CT(GAPDH). The expression level of FLIP relative to the baseline level was calculated as 2^−ΔΔCT(FLIP), where ΔCT is (average FLIP CT-average GAPDH CT) and ΔΔCT is (average ΔCT untreated sample−average ACT treated sample.
To determine whether the reductions in FLIP protein occurred at the level of mRNA or protein, FLIP mRNA expression was measured by Quantitative RT-PCR in cells treated with 5809354 or buffer control.

Row | Compound | sensitization to extrinsic versus intrinsic pathway stimuli [1] | protection by Bcl-XL against apoptosis induced by CH-11 plus compound (PPC-1 cells) | protection by CrmA against apoptosis induced by CH-11 plus compound (PPC-1 cells) | FLIP mRNA expression (FLIP mRNA)
1 | CCn1c(=N)n(CC(=O)c2cc(C(C)(C)C)c(O)c(C(C)(C)C)c2)c2ccccc21 [compound 5569100, 1-(3,5-Di-tert-butyl-4-hydroxy-phenyl)-2-(3-ethyl-2-imino-2,3-dihydro-benzoimidazol-1-yl)-ethanone] | confirming that the results are not unique to PPC-1 cells | no protective effect | almost completely protected | did not reduce FLIP mRNA
2 | O=C(CCCOc1ccc(Cl)cc1Cl)NO [compound 5809354, 4-(2,4-dichlorophenoxy)-N-hydroxybutanamide] | confirming that the results are not unique to PPC-1 cells | no protective effect | almost completely protected | reduced expression of FLIP mRNA; also recorded: decreased FLIP mRNA
3 | CC(=O)CC(=O)Nc1ccc(Cl)c(C(F)(F)F)c1 [compound 6094911, N-[4-chloro-3-(trifluoromethyl)phenyl]-3-oxobutanamide] | confirming that the results are not unique to PPC-1 cells | no protective effect | almost completely protected | did not reduce FLIP mRNA
